Results taken from patent US20070197432A1, “Peptides for preventing, diagnosing and treating animal and/or human leptospirosis” (priority 2002, published 2007).
No end group written: not given here.

Experiments:
[1] = system: Leptospira interrogans sl serovar canicola; experiment: Dogs immunized with PP-KLH, canicola challenge: cultures of plasma, urine and kidney samples; assay type: in vivo, dog
[2] = system: Leptospira interrogans sl serovar canicola; experiment: Dogs immunized with PP-KLH, canicola challenge: clinical, hematological and biochemical parameters; assay type: in vivo, dog
Procedure: An immunization/challenge protocol was carried out in order to evaluate the protection that can be provided by the PP peptide (SEQ ID No. 1) NH2-coupled to the KLH carrier protein (FIG. 14).
(§1) This construct is administered subcutaneously without adjuvant, with PBS as a negative control (batch 2).
Batch 1: 6 SPF dogs, 2 injections of 250 μg of PP-KLH in 1 ml subcutaneously.
Batch 2: 6 SPF dogs, control.
The two injections were administered subcutaneously, […].
The challenge (CH) was carried out on D0.
(§2) The animals are given a challenge at a rate of one virulent culture of 4 to 6 days. For an immunized batch and a control batch, each animal received, in each eye, 0.3 ml of the culture having a titer of 120 TU (i.e. 2×10^8 leptospires per ml) and, intraperitoneally, 4 ml of the same culture diluted ten-fold.
The challenge phase was carried out from D-1 to […], with the challenge on D0.
During this phase, the temperature was measured on D0, D1, D2, D3, D4, D5, D6 and D7.
The hematological parameters were measured on D-1, D3, D7, D10, D14, D15 and D41.
The biochemical parameters were measured on D-1, D3, D7, D10, D14, D18, D25 and D41.

PP peptide = experiment: Trial 1: anti-PP IgG ELISA of gerbils immunized with PP-KLH; assay type: in vivo, gerbil; conditions: three dilutions observed
Procedure: An immunization/challenge protocol was carried out in order to evaluate the protection that can be provided by the PP peptide (SEQ ID No. 1) coupled to the KLH protein.
as §1
Batch 1: 10 gerbils, 2 injections of 30 μg of PP-KLH in 300 μl, subcutaneously.
The two injections in a volume of 300 μl were administered subcutaneously, two weeks apart. A challenge by intraperitoneal injection of 0.5 ml of a canicola culture with a titer of 90 to 100 TU (turbidimetry) diluted to 10^−2.5 was administered two weeks after the second injection. • Antigenic response: Monitoring by ELISA of the immune response of the gerbils against the PP peptide
The anti-PP antibodies were titered in the gerbil by means of an ELISA technique (described above) with a biotinylated anti-gerbil antiglobulin (BioAtlantic) at 1/3000 and, as visualizing agent, peroxidase-coupled streptavidin (RPN1231, Amersham pharmacia biotech).
For each batch of gerbils, the sera were combined with respect to the various sample dates D0 (before the first immunization), D14 (before the second immunization) and D28 (before the challenge).
The results of the IgG antibody response against the PP peptide, expressed as corrected OD (OD of the treated sera corrected with respect to the OD of the control sera), are given in FIG. 11.

[3] = system: Leptospira interrogans sl serovar canicola; experiment: Dogs immunized with PP-KLH, canicola challenge: cultures of plasma, urine and kidney samples; assay type: in vivo, dog; remark: listed apart in the source
Procedure: as §2
The presence of leptospires was studied jointly by PCR (PCR specific for pathogenic leptospires) and by culturing, in the urine at D0, D10, D14, D18, D25 and D41 and in the kidney samples from each animal at the end of the trial at […].
Moreover, the bacteriological results were quantified through the setting up of a coefficient: • by immediate culturing. A single live leptospire can give a positive culture. A relative estimation of the bacterial concentration is expressed by means of a coefficient of 3 when a culture has developed in the third serial dilution prepared from the sample. • by PCR on frozen samples. […] A coefficient of 1 was assigned to a PCR with a weak signal and a coefficient of 2 to a strongly positive PCR.

[4] = system: Leptospira interrogans sl serovar canicola; experiment: Dogs immunized with PP-KLH, canicola challenge: clinical, hematological and biochemical parameters; assay type: in vivo, dog; conditions: at D4
[5] = system: Leptospira interrogans sl serovar canicola; experiment: Trial 2: gerbils immunized with PP-KLH or PP, 10^−2 canicola challenge; assay type: in vivo, gerbil; parameters: Mortality rate / Survival rate: unit not given here
Procedure: An immunization/challenge trial was carried out in order to evaluate the protection that can be provided by the PP peptide (SEQ ID No. 1) coupled or not coupled to the KLH protein.
This construct is administered subcutaneously without adjuvant, and PBS is administered by the same route as the negative control (batch 3). • Batch 1: 12 gerbils, 2 injections of 30 μg of PP-KLH in 300 μl. • Batch 2: 12 gerbils, 2 injections of 30 μg of PP in 300 μl. • Batch 3: 15 gerbils, 2 injections of PBS in 300 A1.
The two injections in a volume of 300 μl were administered subcutaneously, two weeks apart. A challenge by intraperitoneal injection of 0.5 ml of a serovar canicola leptospiral culture with a titer of 90 to 100 TU (turbidimetry) diluted to 10^−2 was administered three weeks after the second injection.

[6] = Accumulation of the two trials, survival

## PP-KLH: PP peptide with cysteine added at the N-terminal position, coupled via sulfo-MBS to KLH carrier protein (keyhole limpet hemocyanin) (KAKPVQKLDDDDDGDDTYKEERHNK; not fully specified (N-terminus))
[1]; Kidneys, D41
  positive cultures/dogs: 5/6
[1]; Urine, D7
  positive cultures/dogs: 3/6
[2]; after challenge
  thrombocytopenia: significantly more pronounced in the controls than in the immunized dogs
[2]; at D3 and D4
  p, difference in temperature, control versus immunized dogs (controls more pronounced febrile peak): < 0.05
[2]; between D0 and D7
  P, evolution of mean increase in temperature, control versus immunized dogs (not significantly different): 0.7944
[2]; between D-1 and D41
  P, evolution of white blood cells, control versus immunized dogs (not significantly different): 0.4407
  p, evolution of mean variation in platelets, control versus immunized dogs (significantly different): 0.0412
[2]; dogs, immunized and control
  mortality following the challenge: No mortality
[2]; overall conclusion
  protection against a canicola challenge in dogs: makes it possible to induce protection
[2]; period of acute effect in the kidneys (D0-D10)
  p, tendency for higher urea level in the controls (no significant difference): < 0.15
[2]; period of kidney colonization (D10-D41)
  p, urea level in the controls significantly higher: < 0.02
PP peptide
  boost effect of second injection: corrected OD at D28 relative to D14: more than double
[3]; Plasma, D0
  positive cultures/dogs: 0/6
[3]; Plasma, D3
  positive cultures/dogs: 6/6
[3]; Plasma, D7
  positive cultures/dogs: 0/6
[3]; Urine, D14
  positive cultures/dogs: 2/6
[3]; Urine, D18
  positive cultures/dogs: 3/6
[3]; Urine, D25
  positive cultures/dogs: 4/6
[3]; detected both by culturing and by PCR, both groups
  renal carrier status at the time of euthanasia: renal carriers
[3]; immunized versus control dogs, cultures and PCRs
  excretion of leptospires in the urine: becomes apparent later, or at a lower level
[4]
  p, monocyte depletion observed only in the controls: 0.05
  p, transient leukopenia greater in control than in immunized dogs: < 0.05
[4]; significant in the controls
  lymphopenia: not noted at all
[5]; 10^−2 canicola challenge
  Mortality rate: 8.3
  Survival rate: 91.6
  mortality in the group (dead/number): 1/12
[5]; 10^−2 canicola challenge, D0
  gerbils at challenge: 12
[5]; 10^−2 canicola challenge, D4
  mortality of gerbils (dead/number): 0/12
[5]; 10^−2 canicola challenge, D5
  mortality of gerbils (dead/number): 0/12
[5]; 10^−2 canicola challenge, D6
  mortality of gerbils (dead/number): 0/12
[5]; 10^−2 canicola challenge, D7
  mortality of gerbils (dead/number): 0/12
[5]; 10^−2 canicola challenge, D8
  mortality of gerbils (dead/number): 0/12
[5]; 10^−2 canicola challenge, D9
  mortality of gerbils (dead/number): 1/12
[5]; 10^−2 canicola challenge, D10
  mortality of gerbils (dead/number): 0/11
[5]; 10^−2 canicola challenge, D11
  mortality of gerbils (dead/number): 0/11
[5]; 10^−2 canicola challenge, D12
  mortality of gerbils (dead/number): 0/11
[5]; 10^−2 canicola challenge, D13
  mortality of gerbils (dead/number): 0/11
[5]; 10^−2 canicola challenge, D14
  mortality of gerbils (dead/number): 0/11
[5]; 10^−2 canicola challenge, D15
  mortality of gerbils (dead/number): 0/11
[5]; 10^−2 canicola challenge, D16
  mortality of gerbils (dead/number): 0/11
[5]; 10^−2 canicola challenge, D17
  mortality of gerbils (dead/number): 0/11
[5]; 10^−2 canicola challenge, D28
  mortality of gerbils (dead/number): 0/11
[5]; [6]
  p, log-rank test versus control: <2.10^−3
  χ^2, log-rank test versus control: 10.1
[5]; Experiment 2, survival
  p, log-rank test versus control: <1.10^−2
  χ^2, log-rank test versus control: 6.84
